Results from patent publication US20160136246A1, “Novel Uses of GLP-1 Receptor Agonists in Patients Treated with Insulin and/or Suffering from Type 1 Diabetes” (NOVO NORDISK A/S, priority 2013, published 2016).

How the values were obtained:
[1] = system: adults with type 1 diabetes; test: Stepwise hypoglycaemic clamp at the end of each treatment period; type: in vivo, human
Experimental: A stepwise hypoglycaemic clamp was performed at the end of each treatment period via controlled i.v. insulin/glucose infusion (FIG. 5). The successive plasma glucose (PG) levels were 5.5, 3.5, 2.5 mmol/L (nadir), and 4.0 mmol/L (recovery). Counterregulatory hormones (glucagon, adrenalin, noradrenalin, cortisol, and growth hormone) and vital signs (pulse, blood pressure) were measured at each successive PG level during the clamp. Glucose infusion rate was also assessed.

[2] = system: adults with type 1 diabetes; test: Randomised, double-blind crossover trial of liraglutide adjunct to insulin, 4 weeks of treatment: glycaemic control and safety; type: in vivo, human; settings: for Asymptomatic hypoglycaemic episodes, N = number of subjects / Asymptomatic hypoglycaemic episodes, percentage of subjects / Documented symptomatic hypoglycaemic episodes, N = number of subjects / Documented symptomatic hypoglycaemic episodes, percentage of subjects / Probable symptomatic hypoglycaemic episodes, E = number of events / Probable symptomatic hypoglycaemic episodes, N = number of subjects / Probable symptomatic hypoglycaemic episodes, percentage of subjects / Severe hypoglycaemic episodes, E = number of events / Severe hypoglycaemic episodes, N = number of subjects / Severe hypoglycaemic episodes, percentage of subjects / Total ADA classified hypoglycaemic episodes, E = number of events / Total ADA classified hypoglycaemic episodes, N = number of subjects / Total ADA classified hypoglycaemic episodes, percentage of subjects: during treatment
Experimental: Subjects received target dose for a minimum of 2 weeks.
After 4 weeks of treatment, estimated treatment differences in insulin dose, HbA1c, pulse and body weight were assessed. Hypoglycaemia and hypoglycaemic episodes and overall safety parameters were assessed throughout the treatment period.
Hypoglycaemia and/or hypoglycaemic episodes were defined and assessed according to the ADA Hypoglycaemic Classification (FIG. 3).

[3] = 0.6 mg liraglutide, during the trial
[4] = 1.2 mg liraglutide, during the trial
[5] = 1.8 mg liraglutide, during the trial

CCCCCCCCCCCCCCCC(=O)N[C@@H](CCC(=O)NCCCC[C@H](NC(=O)[C@H](C)NC(=O)[C@H](C)NC(=O)[C@H](CCC(N)=O)NC(=O)CNC(=O)[C@H](CCC(=O)O)NC(=O)[C@H](CC(C)C)NC(=O)[C@H](Cc1ccc(O)cc1)NC(=O)[C@H](CO)NC(=O)[C@H](CO)NC(=O)[C@@H](NC(=O)[C@H](CC(=O)O)NC(=O)[C@H](CO)NC(=O)[C@@H](NC(=O)[C@H](Cc1ccccc1)NC(=O)[C@@H](NC(=O)CNC(=O)[C@H](CCC(=O)O)NC(=O)[C@H](C)NC(=O)[C@@H](N)Cc1cnc[nH]1)[C@@H](C)O)[C@@H](C)O)C(C)C)C(=O)N[C@@H](CCC(=O)O)C(=O)N[C@@H](Cc1ccccc1)C(=O)N[C@H](C(=O)N[C@@H](C)C(=O)N[C@@H](Cc1c[nH]c2ccccc12)C(=O)N[C@@H](CC(C)C)C(=O)N[C@H](C(=O)N[C@@H](CCCNC(=N)N)C(=O)NCC(=O)N[C@@H](CCCNC(=N)N)C(=O)NCC(=O)O)C(C)C)[C@@H](C)CC)C(=O)O [liraglutide]
Change in pulse from plasma glucose […] to nadir, estimated treatment difference ([1]; 0.6 mg group vs placebo): 0.6 BPM | Change in pulse from plasma glucose […] to nadir, estimated treatment difference ([1]; 1.2 mg group vs placebo): 2.3 BPM | Change in pulse from plasma glucose […] to nadir, estimated treatment difference ([1]; 1.8 mg group vs placebo): −3.4 BPM | Pulse compared to placebo ([1]; all plasma glucose levels, all liraglutide doses): significantly higher | Other counterregulatory hormones to hypoglycaemia, liraglutide vs placebo ([1]; during hypoglycaemic clamp): no systematic differences | Systolic and diastolic blood pressure, liraglutide vs placebo ([1]; during hypoglycaemic clamp): no systematic differences | AEs leading to withdrawal, E = number of events [2, 3]: 1 | AEs leading to withdrawal, N = number of subjects [2, 3]: 1 | AEs leading to withdrawal, percentage of subjects [2, 3]: 6.7% | Abdominal distention, E = number of events [2, 3]: 1 | Abdominal distention, N = number of subjects [2, 3]: 1 | Abdominal distention, percentage of subjects [2, 3]: 6.7% | Abdominal pain (N % E, given as a single 0) [2, 3]: 0/0 | Adverse events, total number of events, E = number of events [2, 3]: 27 | Adverse events, total number of events, N = number of subjects [2, 3]: 12 | Adverse events, total number of events, percentage of subjects [2, 3]: 80.0% | Diarrhea (N % E, given as a single 0) [2, 3]: 0/ | Dyspepsia (N % E, given as a single 0) [2, 3]: 0/0 | Flatulence, E = number of events [2, 3]: 1 | Flatulence, N = number of subjects [2, 3]: 1 | Flatulence, percentage of subjects [2, 3]: 6.7% | Nausea, E = number of events [2, 3]: 8 | Nausea, N = number of subjects [2, 3]: 8 | Nausea, percentage of subjects [2, 3]: 53.3% | Regurgitation, E = number of events [2, 3]: 1 | Regurgitation, N = number of subjects [2, 3]: 1 | Regurgitation, percentage of subjects [2, 3]: 6.7% | Serious AEs (N % E, given as a single 0) [2, 3]: 0/0 | Total number of GI AEs, E = number of events [2, 3]: 12 | Total number of GI AEs, N = number of subjects [2, 3]: 10 | Total number of GI AEs, percentage of subjects [2, 3]: 66.7% | Upper abdominal pain (N % E, given as a single 0) [2, 3]: 0/0 | Vomiting, E = number of events [2, 3]: 1 | Vomiting, N = number of subjects [2, 3]: 1 | Vomiting, percentage of subjects [2, 3]: 6.7% | Asymptomatic hypoglycaemic episodes, N = number of subjects ([2]; 0.6 mg liraglutide): 12 | Asymptomatic hypoglycaemic episodes, percentage of subjects ([2]; 0.6 mg liraglutide): 80.0% | Documented symptomatic hypoglycaemic episodes, N = number of subjects ([2]; 0.6 mg liraglutide): 13 | Documented symptomatic hypoglycaemic episodes, percentage of subjects ([2]; 0.6 mg liraglutide): 86.7% | Probable symptomatic hypoglycaemic episodes, E = number of events ([2]; 0.6 mg liraglutide): 3 | Probable symptomatic hypoglycaemic episodes, N = number of subjects ([2]; 0.6 mg liraglutide): 1 | Probable symptomatic hypoglycaemic episodes, percentage of subjects ([2]; 0.6 mg liraglutide): 6.7% | Severe hypoglycaemic episodes, E = number of events ([2]; 0.6 mg liraglutide): 0 (0) 0/ | Severe hypoglycaemic episodes, N = number of subjects ([2]; 0.6 mg liraglutide): 0 (0) 0/ | Severe hypoglycaemic episodes, percentage of subjects ([2]; 0.6 mg liraglutide): 0 (0) 0/ % | Total ADA classified hypoglycaemic episodes, E = number of events ([2]; 0.6 mg liraglutide): 289 | Total ADA classified hypoglycaemic episodes, N = number of subjects ([2]; 0.6 mg liraglutide): 14 | Total ADA classified hypoglycaemic episodes, percentage of subjects ([2]; 0.6 mg liraglutide): 93.3% | AEs leading to withdrawal, E = number of events [2, 4]: 1 | AEs leading to withdrawal, N = number of subjects [2, 4]: 1 | AEs leading to withdrawal, percentage of subjects [2, 4]: 7.1% | Abdominal distention, E = number of events [2, 4]: 3 | Abdominal distention, N = number of subjects [2, 4]: 3 | Abdominal distention, percentage of subjects [2, 4]: 21.4% | Abdominal pain, E = number of events [2, 4]: 1 | Abdominal pain, N = number of subjects [2, 4]: 1 | Abdominal pain, percentage of subjects [2, 4]: 7.1% | Adverse events, total number of events, E = number of events [2, 4]: 45 | Adverse events, total number of events, N = number of subjects [2, 4]: 14 | Adverse events, total number of events, percentage of subjects [2, 4]: 100% | Diarrhea, E = number of events [2, 4]: 1 | Diarrhea, N = number of subjects [2, 4]: 1 | Diarrhea, percentage of subjects [2, 4]: 7.1% | Dyspepsia, E = number of events [2, 4]: 1 | Dyspepsia, N = number of subjects [2, 4]: 1 | Dyspepsia, percentage of subjects [2, 4]: 7.1% | Flatulence, E = number of events [2, 4]: 1 | Flatulence, N = number of subjects [2, 4]: 1 | Flatulence, percentage of subjects [2, 4]: 7.1% | Nausea, E = number of events [2, 4]: 14 | Nausea, N = number of subjects [2, 4]: 11 | Nausea, percentage of subjects [2, 4]: 78.6% | Regurgitation, E = number of events [2, 4]: 2 | Regurgitation, N = number of subjects [2, 4]: 2 | Regurgitation, percentage of subjects [2, 4]: 14.3% | Serious AEs (N % E, given as a single 0) [2, 4]: 0/0 | Total number of GI AEs, E = number of events [2, 4]: 24 | Total number of GI AEs, N = number of subjects [2, 4]: 12 | Total number of GI AEs, percentage of subjects [2, 4]: 85.7% | Upper abdominal pain (N % E, given as a single 0) [2, 4]: 0/0 | Vomiting, E = number of events [2, 4]: 1 | Vomiting, N = number of subjects [2, 4]: 1 | Vomiting, percentage of subjects [2, 4]: 7.1% | Asymptomatic hypoglycaemic episodes, N = number of subjects ([2]; 1.2 mg liraglutide): 10 | Asymptomatic hypoglycaemic episodes, percentage of subjects ([2]; 1.2 mg liraglutide): 71.4% | Documented symptomatic hypoglycaemic episodes, N = number of subjects ([2]; 1.2 mg liraglutide): 12 | Documented symptomatic hypoglycaemic episodes, percentage of subjects ([2]; 1.2 mg liraglutide): 85.7% | Probable symptomatic hypoglycaemic episodes, E = number of events ([2]; 1.2 mg liraglutide): 1 | Probable symptomatic hypoglycaemic episodes, N = number of subjects ([2]; 1.2 mg liraglutide): 1 | Probable symptomatic hypoglycaemic episodes, percentage of subjects ([2]; 1.2 mg liraglutide): 7.1% | Severe hypoglycaemic episodes, E = number of events ([2]; 1.2 mg liraglutide): 0 (0) 0/ | Severe hypoglycaemic episodes, N = number of subjects ([2]; 1.2 mg liraglutide): 0 (0) 0/ | Severe hypoglycaemic episodes, percentage of subjects ([2]; 1.2 mg liraglutide): 0 (0) 0/ % | Total ADA classified hypoglycaemic episodes, E = number of events ([2]; 1.2 mg liraglutide): 263 | Total ADA classified hypoglycaemic episodes, N = number of subjects ([2]; 1.2 mg liraglutide): 13 | Total ADA classified hypoglycaemic episodes, percentage of subjects ([2]; 1.2 mg liraglutide): 92.9% | AEs leading to withdrawal, E = number of events [2, 5]: 1 | AEs leading to withdrawal, N = number of subjects [2, 5]: 1 | AEs leading to withdrawal, percentage of subjects [2, 5]: 7.1% | Abdominal distention, E = number of events [2, 5]: 5 | Abdominal distention, N = number of subjects [2, 5]: 5 | Abdominal distention, percentage of subjects [2, 5]: 35.7% | Abdominal pain (N % E, given as a single 0) [2, 5]: 0/ | Adverse events, total number of events, E = number of events [2, 5]: 54 | Adverse events, total number of events, N = number of subjects [2, 5]: 13 | Adverse events, total number of events, percentage of subjects [2, 5]: 92.9% | Diarrhea, E = number of events [2, 5]: 5 | Diarrhea, N = number of subjects [2, 5]: 5 | Diarrhea, percentage of subjects [2, 5]: 35.7% | Dyspepsia, E = number of events [2, 5]: 1 | Dyspepsia, N = number of subjects [2, 5]: 1 | Dyspepsia, percentage of subjects [2, 5]: 7.1% | Flatulence (N % E, given as a single 0) [2, 5]: 0/0 | Nausea, E = number of events [2, 5]: 13 | Nausea, N = number of subjects [2, 5]: 11 | Nausea, percentage of subjects [2, 5]: 78.6% | Regurgitation, E = number of events [2, 5]: 1 | Regurgitation, N = number of subjects [2, 5]: 1 | Regurgitation, percentage of subjects [2, 5]: 7.1% | Serious AEs (N % E, given as a single 0) [2, 5]: 0/0 | Total number of GI AEs, E = number of events [2, 5]: 31 | Total number of GI AEs, N = number of subjects [2, 5]: 13 | Total number of GI AEs, percentage of subjects [2, 5]: 92.9% | Upper abdominal pain, E = number of events [2, 5]: 2 | Upper abdominal pain, N = number of subjects [2, 5]: 2 | Upper abdominal pain, percentage of subjects [2, 5]: 14.3% | Vomiting, E = number of events [2, 5]: 4 | Vomiting, N = number of subjects [2, 5]: 3 | Vomiting, percentage of subjects [2, 5]: 21.4% | Asymptomatic hypoglycaemic episodes, N = number of subjects ([2]; 1.8 mg liraglutide): 13 | Asymptomatic hypoglycaemic episodes, percentage of subjects ([2]; 1.8 mg liraglutide): 92.9% | Documented symptomatic hypoglycaemic episodes, N = number of subjects ([2]; 1.8 mg liraglutide): 14 | Documented symptomatic hypoglycaemic episodes, percentage of subjects ([2]; 1.8 mg liraglutide): 100% | Probable symptomatic hypoglycaemic episodes, E = number of events ([2]; 1.8 mg liraglutide): 4 | Probable symptomatic hypoglycaemic episodes, N = number of subjects ([2]; 1.8 mg liraglutide): 1 | Probable symptomatic hypoglycaemic episodes, percentage of subjects ([2]; 1.8 mg liraglutide): 7.1% | Severe hypoglycaemic episodes, E = number of events ([2]; 1.8 mg liraglutide): 0 (0) 0/ | Severe hypoglycaemic episodes, N = number of subjects ([2]; 1.8 mg liraglutide): 0 (0) 0/ | Severe hypoglycaemic episodes, percentage of subjects ([2]; 1.8 mg liraglutide): 0 (0) 0/ % | Total ADA classified hypoglycaemic episodes, E = number of events ([2]; 1.8 mg liraglutide): 316 | Total ADA classified hypoglycaemic episodes, N = number of subjects ([2]; 1.8 mg liraglutide): 14 | Total ADA classified hypoglycaemic episodes, percentage of subjects ([2]; 1.8 mg liraglutide): 100% | Number of adverse events (AEs) compared to placebo ([2]; during liraglutide treatment): higher | Gastrointestinal (GI) AEs compared to placebo ([2]; liraglutide adjunct to insulin): more | Number of hypoglycaemias or overall number of hypoglycaemic episodes (ADA classification) ([2]; liraglutide adjunct to insulin): did not affect | Severity of GI AEs ([2]; liraglutide adjunct to insulin): mild or moderate | Safety or tolerability issues ([2]; short-term trial, subjects with type 1 diabetes): No unexpected liraglutide-related safety or tolerability issues
